# Test results reported in patent EP1561465A2, “Methods of use of fluoroquinolone compounds against bacteria” (LG Life Sciences, Ltd., priority 1999, dated 2001).
# Where two headings read alike, the source gives them in different places.
# What was measured:
# Format in all cases: cell-based
# [1] = tested on: Enterococcus gallinarum; test: MIC by NCCLS broth microdilution, 1100 Japanese clinical isolates 1997-1998; conditions: Enterococcus gallinarum, GALLINARUM
# [2] = tested on: Staphylococcus aureus; test: as above; conditions: for MIC50 / MIC90 / MIC: Staphylococcus aureus; for MIC: Staphylococcus aureus quinolone resistant
# [3] = tested on: Salmonella spp.; test: MIC by agar dilution (NCCLS M7-A4), 288 enteropathogenic isolates, eight quinolones; conditions: for MIC: ciprofloxacin MIC ≥[…], read-out: MIC
# [4] = tested on: Mycobacterium tuberculosis (MTB); test: MIC by proportions method (NCCLS M24-T, 1995), 82 MTB strains; conditions: compared with the other quinolones
# [5] = tested on: Streptococcus pneumoniae; test: MIC by two-fold serial agar dilution, Sensitivity Disk agar-N (Kitasato isolates); conditions: Streptococcus pneumoniae; for MIC: read-out: MIC Range; for MIC50: read-out: MIC50
# [6] = tested on: Hafnia alvei; test: MIC by agar dilution (NCCLS M7-A4), 288 enteropathogenic isolates, eight quinolones; conditions: Hafnia alvei (n = 32)
# [7] = tested on: Campylobacter jejuni; test: MIC by agar dilution (NCCLS M7-A4), 5% sheep blood, microaerophilic 48 h; conditions: Campylobacter jejuni (n=91)
# [8] = tested on: Salmonella spp.; test: MIC by NCCLS broth microdilution, 1100 Japanese clinical isolates 1997-1998; conditions: Salmonella spp. (n=29)
# [9] = tested on: Haemophilus influenzae; test: MIC by agar dilution (NCCLS), 411 isolates Buenos Aires 1998-99; conditions: Haemophilus influenzae (n = 65)
# [10] = tested on: Gram positive anaerobic and facultative anaerobic pathogens; test: microbe, parasite or virus in culture
# [11] = tested on: Streptococcus pneumoniae; test: MIC by NCCLS broth microdilution, 1100 Japanese clinical isolates 1997-1998; conditions: for MIC: Streptococcus pneumoniae quinolone resistant
# [12] = tested on: Escherichia coli; test: MIC by agar dilution (NCCLS), 322 nosocomial Gram negative isolates, Athens 1998; conditions: n = 57 isolates
# [13] = tested on: Enterobacter cloacae; test: MIC by NCCLS broth microdilution, 1100 Japanese clinical isolates 1997-1998; conditions: Enterobacter cloacae (n=40)
# [14] = tested on: Klebsiella pneumoniae; test: as above; conditions: Klebsiella pneumoniae (n=35)
# [15] = tested on: Enterococcus faecalis; test: as above; conditions: for MIC50 / MIC90: Enterococcus faecalis; for MIC90: read-out: MIC90
# [16] = tested on: Haemophilus influenzae; test: MIC by two-fold serial agar dilution, Sensitivity Disk agar-N (Kitasato isolates); conditions: Haemophilus influenzae (24)
# [17] = tested on: Enterococcus faecium; test: MIC by NCCLS broth microdilution, 1100 Japanese clinical isolates 1997-1998; conditions: for MIC: Enterococcus faecium
# [18] = tested on: Shigella spp.; test: MIC by agar dilution (NCCLS M7-A4), 288 enteropathogenic isolates, eight quinolones; conditions: Shigella spp. (n = 21)
# [19] = tested on: Streptococcus pyogenes; test: MIC by agar dilution (NCCLS), 411 isolates Buenos Aires 1998-99
# [20] = Staphylococcus aureus oxacillin resistant (n=57)
# [21] = Staphylococcus aureus oxacillin susceptible (n=41)
# [22] = Streptococcus pneumoniae erythromycin resistant (n=34)
# [23] = Streptococcus pneumoniae erythromycin susceptible (n=11)
# [24] = Enterococcus faecalis ciprofloxacin resistant (n=15)
# [25] = Enterococcus faecalis ciprofloxacin susceptible (n=24)
structure (smiles),measurement,setting,value
"N[C@@H]1[C@H]2CN(c3nc4c(cc3F)c(=O)c(C(=O)O)cn4-c3ccc(F)cc3F)C[C@@H]12 [Trovafloxacin, trovafloxacin]",MIC,[1],0.125 µg/mL
same,MIC,"[1]; Enterococcus gallinarum (vanC1), strain TMS2, read-out: MIC",0.25 µg/mL
same,MIC,"[1]; Enterococcus gallinarum (vanC1), strain TMS3, read-out: MIC",0.25 µg/mL
same,MIC,"[1]; Enterococcus gallinarum (vanC1), strain TMS4, read-out: MIC",0.063 µg/mL
same,MIC Range,[2]; [20],0.016 to 32 µg/mL
same,MIC Range,[2]; [21],≤0.008 to 0.5 µg/mL
same,MIC50,[2]; [20],1 µg/mL
same,MIC90,[2]; [20],8 µg/mL
same,MIC50,[2]; [21],0.032 µg/mL
same,MIC90,[2]; [21],0.063 µg/mL
same,MIC,[2]; strain TMS1* (spontaneous mutant resistant to ciprofloxacin),0.125 µg/mL
same,MIC,"[2]; strain TMS3, read-out: MIC",128 µg/mL
same,MIC,"[2]; strain TMS4, read-out: MIC",0.5 µg/mL
same,MIC,"[2]; strain TMS5, read-out: MIC",1 µg/mL
same,MIC,"[2]; strain TMS6, read-out: MIC",0.5 µg/mL
same,MIC,[3]; S. hadar (n = 2),0.5 µg/mL
same,MIC,[3]; S. newport (n = 1),0.5 µg/mL
same,MIC,[3]; S. virchow (n = 2),0.25 µg/mL
same,% Susceptible,[3]; Salmonella spp. (n = 106),100%
same,MIC50,[3]; Salmonella spp. (n = 106),0.06 µg/mL
same,MIC90,[3]; Salmonella spp. (n = 106),0.25 µg/mL
same,MIC Range,[3]; Salmonella spp. (n = 106),≤0.015 to 1 µg/mL
same,MIC,"[3]; Salmonella, S. tshiongwe (n = 1)",1 µg/mL
same,in vitro activity against MTB,[4],lower in vitro activity
same,MIC90,[5],0.125 µg/mL
same,MIC90,"[5]; 18 h, Ciprofloxacin-resistant (21), ciprofloxacin MIC ≥8 µg/ml, read-out: MIC90",4 µg/mL
same,MIC,"[5]; 18 h, Ciprofloxacin-susceptible (94)",0.031 to 0.25 µg/mL
same,MIC,"[5]; 18 h, Erythromycin-resistant (37)",0.063 to 2 µg/mL
same,MIC,"[5]; 18 h, Minocycline-resistant (37)",0.063 to 2 µg/mL
same,MIC,"[5]; 18 h, Penicillin-resistant (19)",0.031 to 0.25 µg/mL
same,MIC,[5]; 18 h,0.125 to 4 µg/mL
same,MIC50,[5]; Ciprofloxacin-resistant (21),2 µg/mL
same,MIC50,[5]; Ciprofloxacin-susceptible (94),0.063 µg/mL
same,MIC50,[5]; Erythromycin-resistant (37),0.063 µg/mL
same,MIC90,"[5]; Erythromycin-resistant (37), read-out: MIC90",0.25 µg/mL
same,MIC50,[5]; Minocycline-resistant (37),0.063 µg/mL
same,MIC90,"[5]; Minocycline-resistant (37), read-out: MIC90",0.25 µg/mL
same,MIC50,[5]; Penicillin-resistant (19),0.063 µg/mL
same,MIC90,"[5]; Penicillin-resistant (19), read-out: MIC90",0.25 µg/mL
same,% Susceptible,[6],100%
same,MIC50,[6],0.06 µg/mL
same,MIC90,[6],0.06 µg/mL
same,MIC Range,[6],0.03 to 0.12 µg/mL
same,% Susceptible,[7],31.86%
same,MIC50,[7],8 µg/mL
same,MIC90,[7],8 µg/mL
same,MIC Range,[7],≤0.015 to 32 µg/mL
same,MIC50,[8],0.032 µg/mL
same,MIC90,[8],0.063 µg/mL
same,MIC Range,[8],0.016 to 0.063 µg/mL
same,MIC90,[9],0.03 µg/mL
same,MIC Range,[9],≤0.004 to 0.5 µg/mL
same,MIC,"[10]; Bifidobacterium adolescentis, ATCC15703",1 µg/mL
same,MIC,"[10]; Bifidobacterium bifidum, JCM1255",4 µg/mL
same,MIC,"[10]; Bifidobacterium breve, ATCC15700",4 µg/mL
same,MIC,"[10]; Bifidobacterium longum, ATCC15707",4 µg/mL
same,MIC,"[10]; Bifidobacterium pseudolongum, ATCC25526",4 µg/mL
same,MIC,[10]; Clostridioides difficile,1 µg/mL
same,MIC,"[10]; Clostridium perfringens, ATCC13124",0.125 µg/mL
same,MIC,"[10]; Clostridium septicum, ATCC12464",0.125 µg/mL
same,MIC,"[10]; Cutibacterium acnes, ATCC11828",1 µg/mL
same,MIC,"[10]; Eggerthella lenta, ATCC25559",0.5 µg/mL
same,MIC,"[10]; Finegoldia magna, ATCC29328",0.125 µg/mL
same,MIC,"[10]; Gemella morbillorum, ATCC27824",0.25 µg/mL
same,MIC,"[10]; Lacticaseibacillus casei, JCM1134",0.06 µg/mL
same,MIC,"[10]; Lactiplantibacillus plantarum, JCM1149",4 µg/mL
same,MIC,"[10]; Lactobacillus acidophilus, JCM1132",4 µg/mL
same,MIC,"[10]; Levilactobacillus brevis, JCM1059",1 µg/mL
same,MIC,"[10]; Ligilactobacillus salivarius, JCM1231",0.125 µg/mL
same,MIC,"[10]; Limosilactobacillus reuteri, JCM1112",1 µg/mL
same,MIC,"[10]; Limosilactobacillus reuteri, JCM1173",1 µg/mL
same,MIC,"[10]; Paraclostridium sordellii, ATCC9714",0.25 µg/mL
same,MIC,[10]; Parvimonas micra,0.06 µg/mL
same,MIC,[10]; Peptoniphilus asaccharolyticus,0.5 µg/mL
same,MIC,[10]; Peptoniphilus indolicus,0.125 µg/mL
same,MIC,"[10]; Peptostreptococcus anaerobius, ATCC27337",0.06 µg/mL
same,MIC,[10]; Schaalia odontolytica,4 µg/mL
same,MIC,"[10]; Staphylococcus saccharolyticus, ATCC14953",0.06 µg/mL
same,MIC,"[10]; Streptococcus constellatus, ATCC27823",0.125 µg/mL
same,MIC,"[10]; Streptococcus intermedius, ATCC27335",0.125 µg/mL
same,MIC,"[10]; Thomasclavelia ramosa, ATCC25582",0.5 µg/mL
same,MIC50,[11]; Streptococcus pneumoniae,0.125 µg/mL
same,MIC90,[11]; Streptococcus pneumoniae,0.125 µg/mL
same,MIC Range,[11]; Streptococcus pneumoniae amoxicillin resistant (n=40),0.063 to 1 µg/mL
same,MIC Range,[11]; Streptococcus pneumoniae amoxicillin susceptible (n=35),0.063 to 1 µg/mL
same,MIC90,[11]; [22],0.125 µg/mL
same,MIC Range,[11]; [22],0.063 to 1 µg/mL
same,MIC90,[11]; [23],0.125 µg/mL
same,MIC Range,[11]; [23],0.063 to 0.125 µg/mL
same,MIC50,"[11]; Streptococcus pneumoniae, Streptococcus pneumoniae amoxicillin resistant (n=40), read-out: MIC50",0.063 µg/mL
same,MIC50,"[11]; Streptococcus pneumoniae, Streptococcus pneumoniae amoxicillin susceptible (n=35), read-out: MIC50",0.063 µg/mL
same,MIC90,"[11]; Streptococcus pneumoniae, Streptococcus pneumoniae amoxicillin susceptible (n=35), read-out: MIC90",0.25 µg/mL
same,MIC50,"[11]; Streptococcus pneumoniae, Streptococcus pneumoniae erythromycin resistant (n=34), read-out: MIC50",0.063 µg/mL
same,MIC,"[11]; Streptococcus pneumoniae, strain TMS1",0.25 µg/mL
same,MIC,"[11]; Streptococcus pneumoniae, strain TMS2",1 µg/mL
same,MIC50,[12]; Escherichia coli,0.06 µg/mL
same,MIC90,[12]; Escherichia coli,0.25 µg/mL
same,MIC Range,[12],≤0.03 to 64 µg/mL
same,MIC50,[13],0.032 µg/mL
same,MIC90,[13],1 µg/mL
same,MIC Range,[13],≤0.008 to 2 µg/mL
same,MIC50,[14],0.032 µg/mL
same,MIC Range,[14],≤0.008 to 1 µg/mL
same,MIC90,[14]; read-out: MIC90,0.063 µg/mL
same,MIC Range,[15]; [24],0.25 to 16 µg/mL
same,MIC Range,[15]; [25],0.25 to 0.5 µg/mL
same,MIC50,[15]; [24],4 µg/mL
same,MIC90,[15]; [24],16 µg/mL
same,MIC50,[15]; [25],0.25 µg/mL
same,MIC90,[15]; [25],0.25 µg/mL
same,MIC50,[16],0.016 µg/mL
same,MIC90,[16],0.031 µg/mL
same,MIC Range,[16],≤0.004 to 0.031 µg/mL
same,MIC50,[17]; Enterococcus faecium (n=39),16 µg/mL
same,MIC90,[17]; Enterococcus faecium (n=39),64 µg/mL
same,MIC Range,[17]; Enterococcus faecium (n=39),0.25 to 64 µg/mL
same,MIC,"[17]; Enterococcus faecium (vanA) vancomycin resistant, strain TMS1",8 µg/mL
same,MIC,"[17]; Enterococcus faecium (vanA) vancomycin resistant, strain TMS2",1 µg/mL
same,MIC,"[17]; Enterococcus faecium (vanA) vancomycin resistant, strain TMS3",8 µg/mL
same,MIC,"[17]; Enterococcus faecium (vanA) vancomycin resistant, strain TMS4",8 µg/mL
same,MIC,"[17]; Enterococcus faecium (vanA) vancomycin resistant, strain TMS5",2 µg/mL
same,MIC,"[17]; Enterococcus laecium (van B) vancomycin resistant, strain TMS6",32 µg/mL
same,MIC,"[17]; Enterococcus laecium (van B) vancomycin resistant, strain TMS7",32 µg/mL
same,% Susceptible,[18],100%
same,MIC50,[18],≤ 0.015 µg/mL
same,MIC90,[18],≤ 0.015 µg/mL
same,MIC Range,[18],≤0.015 µg/mL
same,MIC90,[19]; Streptococcus pyogenes,0.125 µg/mL
same,MIC Range,[19]; Streptococcus pyogenes (n = 69),0.06 to 1 µg/mL
